The values that follow come from PMC6389703, “Identification of Biologically Active Ganoderma lucidum Compounds and Synthesis of Improved Derivatives That Confer Anti-cancer Activities in vitro” (Frontiers in Pharmacology, 2019).

One data set concerns KOPN-8 cells. Nature of the data set: Cell Titer Glo viability assay, KOPN-8. The following applies: Homo sapiens, 72-h treatment. The class given is cell-based. The method, then: Either 1 × 10^3–4.8 × 10^3 or 4 × 10^2–1.2 × 10^3 cells were seeded to each well of 96- or 384-well white polystyrene flat-bottomed plates (3610 or 8804BC, Corning) in 100 μL or 30 μL media per well, respectively. The concentrations used were experimentally determined to ensure logarithmic growth during the duration of the experiment and prevent adverse effects on cell growth by DMSO exposure. The plates were incubated at 37°C in 5% CO2 for 24 h before treatment. Stock solutions of test compounds (10 mM in DMSO) in nine 3-fold serial dilutions were dispensed via pintool (Biomek). The final concentration of DMSO was 0.3% (v/v) in each well. […] Luminescence was recorded in an Envision plate reader (PerkinElmer).
For the CTG assay, 3 or 4 replicate assays were conducted for each experimental condition, and a minimum of 3 independent experiments were conducted for cellular assays. The mean luminescence of each experimental treatment group was normalized as a percentage of the mean intensity of untreated controls. EC50 values (μM) were calculated by Pipeline Pilot Software (Accelrys, Enterprise Platform, San Diego, CA, United States). EC50 values (μM) from the viability assay were calculated from dose response curve-fitting via non-linear regression by using GraphPad Prism (Version 7.0, San Diego, CA, United States). […]
For orientation: In ATP-based viability assays light output follows the ATP content of the culture.

Data set [1] concerns SUM-149 cells. Nature of the data set: Annexin V/7-AAD apoptosis detection. The class given is cell-based, human. The following applies: 48 h. The method, then: SUM-149 cells (5 × 10^5) were seeded and treated either with vehicle (0.1% DMSO) or with 20 μM of EP or with puromycin (200 ng/mL) as positive control for 48 h. After treatment floating cells were collected, and all cells were harvested and counted. Treated cells were analyzed for cell death by using the FITC Annexin-V/7AAD Apoptosis detection kit (product #640922, Biolegend, San Diego, CA, United States) according to the manufacturer’s instructions. Briefly, cells were resuspended in Annexin Binding Buffer, stained with Annexin V-FITC and/or 7-AAD, and incubated for 30 min at 4°C. Data were acquired on a BD FACS Canto II cytometer (BD Biosciences, San José, CA, United States) and analyzed by using FlowJo software (V10, FlowJo, LLC, Ashland, OR, United States).

Data set [2] relates to SUM-149 cells. Nature of the data set: ApoTox-Glo Triplex assay, SUM-149. To be noted: SUM-149, 24 h. The class given is cell-based, human. The method, then: Cells (9.5 × 10^4/well in 75 μL of fresh medium) were dispensed in 96-well black flat bottom (8807BC, Corning) plates. The cells were incubated for 12 h at 37°C and then treated with compounds (25 μL) for 24 h. DMSO was used as a negative control, and staurosporine was used as the positive control. […] Then, the Caspase-Glo® 3/7 Reagent was added; plates were mixed briefly by orbital shaking (300-500 rpm for ∼30 s), followed by an additional 30 min incubation at RT. Then luminescence, which correlates with caspase 3/7 activation, was recorded with a plate reader to […] apoptosis induction.

The test system of a further data set is MCF-7 cells. The data set can be described thus: ROS measurement (CellROX green), MCF-7. The class given is cell-based, human. The method, then:
SUM-149 or MDA-MB-231 were plated in 96-well plates at a density of 2 × 10^4 and 1 × 10^4 cells/well, respectively, in black 96-well clear bottom tissue culture plates and incubated for 24 h at 37°C. The mRuby-Mito-7 plasmid was obtained from Addgene (#55874 from Michael Davidson). A stable clone of MCF-7 was generated by using Fugene 6 (Roche) to transfect cells (2 × 10^5) with plasmid (2.0 μg) under neomycin selection. A stable cell line was selected by using G418 (300 μg/mL) for 2 weeks, sorted by flow cytometry, and maintained under G418 thereafter. Transfected MCF-7 cells were plated at a density of 2 × 10^4 cells/well in black 96-well clear bottom tissue culture plates and incubated overnight at 37°C. To test for ROS formation and remove background, cells were replenished with fresh PBS with 2% FBS and treated with the desired compounds for 1 h at 37°C. DMSO (0.5%) was used as a negative control, while Menadione (Mena, at 10 μM) or t-Butyl hydroperoxide (TBHP) at 100 μM final concentration were used as a positive control. To evaluate the compounds’ effects on ROS formation inhibition, the free radical scavenger N-acetyl cysteine (NAC) was used. Cells were treated with or without NAC (500 μM or 100 μM) for 1 h, then CellROX® green reagent (Molecular Probes #C10444) was added to a final concentration of 5 μM, and cells were incubated for an additional 30 min at 37°C. Cells were then washed 2× with PBS, followed by fixation with 4% paraformaldehyde (v/v) for 15 min, and 2 more washes with PBS. Fluorescence intensity was measured in a Clariostar® plate reader (BMG LABTECH, Cary, NC, United States) at 535 nm.

The subject of data set [3] is AKT isoforms, BCL-XL, Cyclin D1, c-Myc, PARP in SUM-149 cells. The data set can be described thus: Immunoblots of signaling proteins. The data set is classed as cell-based, human. From the text: Breast cancer cells treated with vehicle or EP were lysed, and equal total protein was resolved via SDS-PAGE and immunoblotted with indicated antibodies (Cell Signaling Technologies, Abcam, Sigma) as described previously ([Castillo-Pichardo et al., 2009]; [Martinez-Montemayor et al., 2011]; [Suarez-Arroyo et al., 2016]).
In general terms: Immunoblotting shows a protein as a band on a membrane.

Data set [4] in a line: Solubility in DMSO or water. The following applies: unless warmed up to 30°C.

In the data set with KOPN-8 cells, `CC(C)[C@@H](C)/C=C/[C@@H](C)[C@H]1CC[C@@H]2[C@]1(C)CC[C@H]1[C@]23C=C[C@]2(C[C@@H](O)CC[C@]12C)OO3` [EP, ergosterol peroxide] came in with an EC50 of 22.4 µM. In the data set on SUM-149 cells [1] (20μM), this compound showed an Early apoptotic cells of 50.1%, a Late apoptotic cells of 3.2% and a Live cells of 45.9%. The “decrease of live cells (Annexin-, 7AAD-)” value with SUM-149 cells [1] (vs vehicle) was roughly 15%. Also, in the data set with SUM-149 cells [2], the “caspase 3/7 activity” value is reported as “increase caspase 3/7 activity” and the “viability (GF-AFC)” value is on record as “decrease viability”. For the same compound, the “ROS increase (fold)” value in the data set with MCF-7 cells (GA-01, ergosterol, 5,6-dehydroergosterol 50 µM, EP 20 µM) is on record as “at least a twofold”. The “ROS formation reduction when co-treated with NAC” value in the data set with MCF-7 cells (NAC 100 µM, TBHP 100 µM) is recorded as 9–25%. In addition, in data set [3] (SUM-149), the AKT3 levels result is on record as “not affecting AKT3 levels” and the p-AKT2 result is listed as “without affecting p-AKT2”. In addition, in data set [3] (SUM-149, 30 μM, 24 h), the PARP cleavage entry was “induces PARP cleavage” and the “total PARP levels” value was “significantly reduces total PARP levels”. In addition, in data set [3] (SUM-149, 72 h), the AKT2 levels entry was “decreases”, the “expression of BCL-XL” value is “significantly reduces”, the “expression of Cyclin D1” value is listed as “significantly reduces” and the “expression of c-Myc” value is “significantly reduces”. Moreover, in data set [3] (SUM-149, 72 h), the “expression of p-AKT1 (Ser 473)” value is listed as “significantly decreases” and the “total AKT1 levels” value is reported as “decreases total AKT1”. Besides, the “solubility properties in DMSO or water” value in data set [4] was “poor”.

A word on the EC50: it is the concentration giving half of the maximal effect.
